Data as given in patent publication US8563254B2, “Biomarkers of tumor pharmacodynamic response” (Novartis AG, priority 2009, dated 2013).

Experiments:
[1] = tested on: GTL-16 tumor-bearing mice; experiment: Hsp70 expression in GTL-16 xenograft tumors (Western blot, IHC); type: in vivo; details: GTL-16 tumors, single 75 mg/kg dose i.v.
Procedure: (§1) The in vivo study was carried out in strict accordance with Swiss law for animal protection and was approved by the Swiss Cantonal Veterinary Office of Basel-Stadt. GTL-16 (4×10^6) and A375 cells (5×10^6) were inoculated subcutaneously in the right flank in 200 μl Hanks' balanced salt solution (HBSS) or PBS, respectively. Invasive procedures were performed under Forene anesthesia. All experiments were performed in female Harlan HsdNpa: Athymic Nude-nu mice (Laboratory Animal Services, Novartis Pharma AG, Basel). The animals were kept under optimized hygienic conditions with 12 hr dark, 12 hr light conditions. The animals were fed food and water ad libitum. A single 75 mg/kg and 50 mg/kg dose of Hsp90 inhibitor, NVP-AUY922 was administered to the GTL-16 and A375 tumor-bearing mice, when tumors had reached a mean volume of 200 mm^3-500 mm^3 in size. Mice in the control group were injected with the vehicle (D5W). Serum was isolated and tumors dissected over the time course 0-168 hr. Tumors were cut in two halves. One half was paraffin embedded and the other snap frozen, and stored at −80° C.
(§2) Total protein lysates were prepared from the GTL-16 and A375 cells with RIPA lysis buffer (Upstate, Millipore Corporation, Charlottesville, Va., USA). […] Proteins were quantified by bicinchoninic acid assay (Pierce Biotechnology, Rockford, Ill., USA) for Western blotting. […]

A375 cells = experiment: IL-8 ELISA of A375 culture supernatants; type: cell-based, human
Procedure: A malignant melanoma cell line A375 (American Type Culture Collection, Manassas, Va., USA) and gastric cancer cell line, GTL-16 (Prof Silvia Giordano, Institute for Cancer Research and Treatment, Turin, Italy) were cultured in RPMI 1640 supplemented with 10% FBS and 1% penicillin-streptomycin at 37° C. in 5% CO2 (GIBCO reagents, Invitrogen Corporation, Carlsbad, Calif., USA). Cell numbers were determined by ViCell™ XR Cell Viability Analyzer 2.03 (Beckman Coulter, Inc., Fullerton, Calif., USA). Cells were seeded in poly-D-lysine coated plates (BIOCOAT Cell Environments, Becton Dickinson Biosciences, San Jose, Calif., USA).
Human IL-8 levels in cell culture supernatants from GTL-16 and A375 cells were measured by a sandwich enzyme-linked immunosorbent assay (R&D Systems, Inc., Minneapolis, Minn., USA). Cell culture supernatants were collected from DMSO and NVP-AUY922 treated cells 16, 24, 48 and 72 hr post-treatment and stored at −20° C.
To better characterize the relationship between Hsp90 inhibitor treatment and effects on IL-8 production, GTL-16 and A375 cells were washed and treated for 24 hr with fresh medium containing various concentrations of NVP-AUY922. For this length of treatment time, maximal inhibition of IL-8 accumulation appears to be reached at 0.3 μM as measured by enzyme-linked immunosorbent assay; this equates to 80% and 60% reductions in GTL-16 and A375 cultures, respectively (FIGS. 2A, B).

A375 tumor-bearing mice = experiment: Hsp70 expression in A375 xenograft tumors; type: in vivo; details: single 50 mg/kg dose i.v.
Procedure: as §1, §2

tumor-bearing mice = experiment: Serum IL-8 in tumor-bearing mice, summary of both models; type: in vivo; details: single dose
Procedure: as §1, with “Serum was isolated and tumors dissected over the time course 0-168 hr. Tumors were cut in two halves. One half was paraffin embedded and the other snap frozen, and stored at −80° C.” left out
Human IL-8 levels in cell culture supernatants treated with NVP-AUY922 were initially assessed as part of a multiplexed bead-based cytokine panel (hu 27-plex panel I, Bio-rad Laboratories, Hercules, Calif., USA) with a BioPlex Suspension Array System (Bio-rad). Human IL-8 and mouse KC levels in serum derived from GTL-16 and A375 tumor-bearing mice treated with NVP-AUY922 were measured by single-plex cytokine bead-based assay (Milliplex, Millipore, Billerica, Mass., USA). […]

How did the “earliest time post-treatment at which Hsp70 is induced in tumor” value [1] turn out when `CCNC(=O)c1noc(-c2cc(C(C)C)c(O)cc2O)c1-c1ccc(CN2CCOCC2)cc1` [NVP-AUY922, 5-(2,4-Dihydroxy-5-isopropyl-phenyl)-4-(4-morhpolin-4-ylmethyl-phenyl)-isoxazole-3-carboxylic acid ethylamide] was run?
The value was 6 h.

What about the “stable Hsp70 induction in tumor up to” value [1] of the same compound?
The value was 48 h.

And the “time within which IL-8 production dramatically declines” value (A375 cells; A375, 0.3 μM)?
The value was no more than 16 h.

And the “concentration at which maximal inhibition of IL-8 accumulation is reached” value (A375 cells; A375, 24 hr treatment)?
Its value is 0.3 µM.

What about the inhibition at 0.3 µM (A375 cells; Homo sapiens, A-375, A375, 0.3 μM, 24 hr, ELISA, read-out: reduction of IL-8 accumulation (maximal inhibition)) of the same compound?
The inhibition at 0.3 µM was 60%.

And the “Hsp70 induction in tumor compared with GTL-16 model” value (A375 tumor-bearing mice)?
Its value is “same pattern of Hsp70 induction”.

What about the “transient decrease in serum IL-8 levels” value (tumor-bearing mice) of the same compound?
The value was 40-70%.
